Laboratory results from patent US20100226983A1, “Compositions for treatment and prevention of acne, methods of making the compositions, and methods of use thereof” (NanoBio Corporation, priority 2009, published 2010).
Where two headings read alike, the source gives them in different places.

Tests used:
P. acnes [1] = experiment: MIC and MBC against 16 clinical isolates of P. acnes (broth microdilution, no sebum); assay type: cell-based, Propionibacterium acnes; conditions: for MBC Range / MIC Range: NB-00X formulations as μg CPC/ml; for MIC50 / MIC90 / MBC: Cutibacterium acnes
Method: The nanoemulsions (“NB-00X”) comprised, in an aqueous medium, soybean oil, Tween 20® as a nonionic surfactant, ethanol, cetylpyridinium chloride (CPC) as a cationic surfactant, EDTA, and water, and optionally, a thickening agent for the gel formulation.
Each dilution contained varying concentrations of soybean oil, Tween 20®, ethanol, CPC, and EDTA. Combination products were also evaluated; stock emulsions containing NB-00X gel (3 mg CPC/ml)+2% salicyclic acid or NB-00X gel+0.5% benzoyl peroxide (BPO) were serially diluted two-fold and each concentration was tested against 16 P. acnes isolates. In general, the standard methodology was followed for MIC and MBC determination.
Weighing of drugs and potency calculations were done as prescribed by Clinical and Laboratory Standards Institute (1). Dimethyl sulfoxide (DMSO) was used to prepare stock solutions of the water-insoluble compound tetracycline at 100× concentrations. […] Stock solutions of chlorhexidine and NB-00X were prepared at a 4× concentration in DI water.
To prepare intermediate concentrations, 100× stock solutions were serially diluted 1:1 using DMSO or DI water. Final concentrations were made by 1:50 or 1:1 dilutions in Wilkin Chalgren media (1) to give 2× of the test concentrations, with final DMSO concentrations at 1%. 50 μl of these drug concentrations were transferred to 96-well plates using multi-channel pipettes.
P. acnes strains grown on sheep blood agar for 24-48 hrs at 35° C. were used as the sources of inocula for susceptibility studies as per Clinical and Laboratory Standards Institute. […] Within 15 minutes, each well (except the negative growth controls) of the microtiter tray containing the serial dilutions of test compounds received 50 μl of inoculum, resulting into a log2 dilution of both drug and bug in each well. Verification of the colony-forming units in the inoculum was performed by diluting the adjusted inoculum preparation to […] and plating 100 μl on blood agar plate.
Microtiter and blood agar plates were incubated at 35-37° C. for 48 h in a 7.0 L AnaeroPack Jar (Mitsubishi gas chemical; No. 50-70) fitted with an anaerobic gas generating system (Misubishi, No. 10-01) and a dry anaerobic indicator strip (BBL, Becton, Dickinson & Co. #271051). MICs were read visually using a 96-well plate reader fitted with a magnifying mirror (Biodesign of New York). Because of the opacity of benzoyl peroxide, 20 μl of Cell Titer Blue (alamar blue from Promega G8080) was added after 48 hrs; the plates were incubated for an additional hour prior to reading. Colony-forming units were counted after 72 h of incubation to ensure that the initial inocula were between 2-5×10^6 cfu/ml.
The minimal bactericidal concentrations (MBC) for P. acnes were determined by plating 10 μl from the well determined to be the MIC plus 4 wells above the MIC on blood-supplemented Mueller-Hinton agar plate. Inoculated petri plates were incubated for 72 h at 35° C. under anaerobic conditions.

P. acnes [2] = experiment: MIC and MBC against 16 P. acnes isolates in the presence of 50% artificial sebum; assay type: cell-based, Propionibacterium acnes; conditions: for increase of MBC90/MBCs in the presence of sebum / increase of MIC90 in the presence of sebum / impact of sebum on microbiological activity (MIC90/MBC90): 50% sebum versus no sebum; for MIC90: Cutibacterium acnes, 16 P. acnes isolates, 50% artificial sebum; for impact of sebum on microbiological activity (MIC90/MBC90): up to the concentrations tested
Method: The nanoemulsions (“NB-002”) comprised, in an aqueous medium, soybean oil, Tween 20® as a nonionic surfactant, ethanol, cetylpyridinium chloride (CPC) as a cationic surfactant, EDTA, and water. Artificial sebum was prepared by adding the entire ingredients given in the Table 6 and heating at 60° C. in a water bath, with intermittent stirring until all solids melted resulting in to a clear yellow liquid ([…] et al., “Diffusion properties of model compounds in artificial sebum. Int. J. Pharm., 345:88-94 (2007)). To prepare intermediate concentrations, 100× stock solutions were serially diluted 1:1 using DMSO or DI water. Final concentrations were made by 1:50 dilutions in Wilkin Chalgren media to give 2× of the final test concentrations, with final DMSO concentrations at 1%. 50 μl of these drug concentrations were transferred to 96-well plates using multi-channel pipettes. Sebum was prewarmed to 50° C. and each well received 45 μl of sebum. After ten minutes at 35° C., five microliters of a P. acnes culture at 10^8 colony-forming units/ml was added to each well.

[3] = 16 P. acnes isolates, no sebum, read-out: MBC50
[4] = 16 P. acnes isolates, no sebum, read-out: MBC90
[5] = 16 P. acnes isolates, no sebum, listed as chlorhexidine

Row | Structure (SMILES) | MIC Range (P. acnes [1]; 16 P. acnes isolates, no sebum) | MIC50 (P. acnes [1]; 16 P. acnes isolates, no sebum) | MIC90 (P. acnes [1]; 16 P. acnes isolates, no sebum) | increase of MIC90 in the presence of sebum (P. acnes [2]) | MIC90 (P. acnes [2]) | impact of sebum on microbiological activity (MIC90/MBC90) (P. acnes [2]) | MIC Range (P. acnes [1]; [5]) | MBC Range (P. acnes [1]; 16 P. acnes isolates, no sebum) | MBC (P. acnes [1]; [3]) | MBC (P. acnes [1]; [4]) | increase of MBC90/MBCs in the presence of sebum (P. acnes [2]) | isolates resistant (P. acnes [1]; share of the P. acnes isolates resistant to the drug) | MBC90 (P. acnes [1]; 16 P. acnes isolates, no sebum) | MBC Range (P. acnes [1]; [5])
1 | O=C(OOC(=O)c1ccccc1)c1ccccc1 [Benzoyl peroxide, benzoyl peroxide] | ≦50-100 μg/ml | 50 µg/mL | 50 µg/mL | eight-fold | 400 µg/mL | – | – | 100 to 400 µg/mL | 200 µg/mL | 200 µg/mL | eight-fold | – | – | –
2 | CN(C)[C@@H]1C(O)=C(C(N)=O)C(=O)[C@@]2(O)C(O)=C3C(=O)c4c(O)cccc4[C@@](C)(O)[C@H]3C[C@@H]12 [Tetracycline, tetracycline] | – | 1 µg/mL | > 32 µg/mL | – | 32 µg/mL | – | – | – | > 16 µg/mL | > 32 µg/mL | – | 44% | – | –
3 | O=C(O)c1ccccc1O [Salicylic acid] | 500 to 1000 µg/mL | 1000 µg/mL | 1000 µg/mL | – | 1000 µg/mL | not significantly impacted | – | – | 2000 µg/mL | 2000 µg/mL | – | – | 2000 µg/mL | –
4 | CCC[C@@H]1C[C@@H](C(=O)N[C@@H]([C@H]2O[C@H](SC)[C@H](O)[C@@H](O)[C@H]2O)[C@H](C)Cl)N(C)C1 [Clindamycin, clindamycin] | – | 2 µg/mL | > 64 µg/mL | – | > 64 µg/mL | – | – | – | > 64 µg/mL | > 64 µg/mL | – | – | – | –

Continued, in another order:

Row | MIC Range (P. acnes [1]; 16 P. acnes isolates, no sebum) | MIC50 (P. acnes [1]; 16 P. acnes isolates, no sebum) | MIC90 (P. acnes [1]; 16 P. acnes isolates, no sebum) | increase of MIC90 in the presence of sebum (P. acnes [2]) | MIC90 (P. acnes [2]) | impact of sebum on microbiological activity (MIC90/MBC90) (P. acnes [2]) | MIC Range (P. acnes [1]; [5]) | Structure (SMILES) | MBC Range (P. acnes [1]; 16 P. acnes isolates, no sebum) | MBC (P. acnes [1]; [3]) | MBC (P. acnes [1]; [4]) | increase of MBC90/MBCs in the presence of sebum (P. acnes [2]) | isolates resistant (P. acnes [1]; share of the P. acnes isolates resistant to the drug) | MBC90 (P. acnes [1]; 16 P. acnes isolates, no sebum) | MBC Range (P. acnes [1]; [5])
5 | – | 2 µg/mL | – | – | – | did not impact | – | CC[C@H]1OC(=O)[C@H](C)[C@@H](O[C@H]2C[C@@](C)(OC)[C@@H](O)[C@H](C)O2)[C@H](C)[C@@H](O[C@@H]2O[C@H](C)C[C@H](N(C)C)[C@H]2O)[C@](C)(O)C[C@@H](C)C(=O)[C@H](C)[C@@H](O)[C@]1(C)O [Erythromycin, erythromycin] | – | > 64 µg/mL | – | – | – | – | –
6 | ≦10 μg/ml | ≤ 10 µg/mL | ≤ 10 µg/mL | at least eight-fold | 78 µg/mL | – | ≤ 10 µg/mL | [H]/N=C(\N/C(=N/[H])NCCCCCCNC(=N)NC(=N)Nc1ccc(Cl)cc1)Nc1ccc(Cl)cc1 [Chlorhexidine, chlorhexidine] | ≦10 μg/ml | ≤ 10 µg/mL | ≤ 10 µg/mL | at least 125 fold | – | – | ≤ 10 µg/mL
